Experimental data as given in ChEMBL document CHEMBL4393715, “Design, synthesis and biological evaluation of the thioether-containing lenalidomide analogs with anti-proliferative activities” (Eur J Med Chem, 2019).
Each block holds one compound with its values, some of them ahead of it.

How the values were obtained:
PBMC [1] = experiment: Antiinflammatory activity in human PBMC cells assessed as reduction in LPS-induced TNF-alpha production preincubated for 1 hr followed by LPS addition and measured after 18 to 20 hrs by ELISA; format: functional, cell-based
U-266 = experiment: Antiproliferative activity against human U266 cells measured after 72 hrs by CellTiter96 Aqueous non-radioactive cell proliferation assay; format: functional, cell-based; conditions: U-266, 72 h
Raji = experiment: Antiproliferative activity against human Raji cells measured after 168 hrs by CellTiter96 Aqueous non-radioactive cell proliferation assay; format: functional, cell-based
THP-1 = experiment: Antiproliferative activity against human THP1 cells measured after 168 hrs by CellTiter96 Aqueous non-radioactive cell proliferation assay; format: functional, cell-based; conditions: THP-1, 168 h
MM1.S = experiment: Antiproliferative activity against human MM1S cells measured after 168 hrs by CellTiter96 Aqueous non-radioactive cell proliferation assay; format: functional, cell-based
Z-138 = experiment: Antiproliferative activity against human Z138 cells measured after 72 hrs by CellTiter96 Aqueous non-radioactive cell proliferation assay; format: functional, cell-based; conditions: Z-138, 72 h
[2] = Antiproliferative activity against human Mino cells measured after 72 hrs by CellTiter96 Aqueous non-radioactive cell proliferation assay; format: functional, cell-based
Kasumi 1 = experiment: Antiproliferative activity against human Kasumi-1 cells measured after 168 hrs by CellTiter96 Aqueous non-radioactive cell proliferation assay; format: functional, cell-based; conditions: Kasumi 1, 168 h
RPMI-8226 [3] = experiment: Antiproliferative activity against human RPMI8226 cells measured after 72 hrs by CellTiter96 Aqueous non-radioactive cell proliferation assay; format: functional, cell-based; conditions: RPMI-8226, 72 h
PBMC [4] = experiment: Cytotoxicity against human PBMC cells by CellTiter96 Aqueous non-radioactive cell proliferation assay; format: cell-based
JeKo-1 = experiment: Antiproliferative activity against human JeKo1 cells measured after 72 hrs by CellTiter96 Aqueous non-radioactive cell proliferation assay; format: functional, cell-based; conditions: JeKo-1, 72 h
MV4-11 = experiment: Antiproliferative activity against human MV411 cells measured after 168 hrs by CellTiter96 Aqueous non-radioactive cell proliferation assay; format: functional, cell-based; conditions: MV4-11, 168 h
RPMI-8226 [5] = experiment: Antitumour activity against human RPMI8226 cells xenografted in CB-17 SCID mouse assessed as inhibition of tumour growth at 60 mg/kg/day, po measured twice a week for 21 days relative to control; format: functional; set-up: scale not given: the % may be the effect or the level left
RPMI-8226 [6] = experiment: Antitumour activity against human RPMI8226 cells xenografted in CB-17 SCID mouse assessed as tumour volume at 60 mg/kg/day, po measured after day 18 (reference value: 153 to 154 mm3); format: functional
[7] = Clearance in BALB/c mouse at 5 mg/kg, iv and measured up to 24 hrs by LC-MS/MS analysis; format: ADME, organism-based; conditions: in vivo
[8] = Toxicity in CB-17 SCID mouse xenografted with human RPMI8226 cells assessed as mortality at 60 mg/kg/day, po and measured after day 18; format: organism-based; conditions: in vivo
[9] = Cmax in BALB/c mouse at 20 mg/kg, po and measured up to 24 hrs by LC-MS/MS analysis; format: ADME, organism-based; set-up: dose 20 mg/kg, route oral; conditions: in vivo
[10] = Volume of distribution at steady state in BALB/c mouse at 5 mg/kg, iv and measured up to 24 hrs by LC-MS/MS analysis; format: ADME, organism-based; conditions: in vivo, read-out: Vdss
[11] = Tmax in BALB/c mouse at 20 mg/kg, po and measured up to 24 hrs by LC-MS/MS analysis; format: ADME, organism-based; conditions: in vivo
[12] = AUC (infinity) in BALB/c mouse at 5 mg/kg, iv and measured up to 24 hrs by LC-MS/MS analysis; format: ADME, organism-based; set-up: dose 5 mg/kg, route intravenous, time infinity; conditions: in vivo
[13] = Terminal elimination half life in BALB/c mouse at 20 mg/kg, po and measured up to 24 hrs by LC-MS/MS analysis; format: ADME, organism-based; conditions: in vivo, read-out: LambdaZ (converted)
[14] = Toxicity in CB-17 SCID mouse xenografted with human RPMI8226 cells assessed as body weight at 60 mg/kg/day, po and measured after day 18 (reference value: 20.1 to 20.4 g); format: organism-based; conditions: in vivo
[15] = AUC (infinity) in BALB/c mouse at 20 mg/kg, po and measured up to 24 hrs by LC-MS/MS analysis; format: ADME, organism-based; set-up: dose 20 mg/kg, route oral, time infinity; conditions: in vivo
[16] = MRT (infinity) in BALB/c mouse at 5 mg/kg, iv and measured up to 24 hrs by LC-MS/MS analysis; format: ADME, organism-based; conditions: in vivo
[17] = Oral bioavailability in BALB/c mouse at 20 mg/kg and measured up to 24 hrs by LC-MS/MS analysis; format: ADME, organism-based; conditions: in vivo
[18] = Toxicity in CB-17 SCID mouse xenografted with human RPMI8226 cells assessed as increase in body weight at 60 mg/kg/day, po and measured after day 18 (reference value: 13.4%); format: organism-based; conditions: in vivo
[19] = Half-life in BALB/c mouse at 5 mg/kg, iv and measured up to 24 hrs by LC-MS/MS analysis; format: ADME, organism-based; conditions: in vivo
RPMI-8226 [20] = experiment: Antitumour activity against human RPMI8226 cells xenografted in CB-17 SCID mouse assessed as relative tumour volume at 60 mg/kg/day, po measured twice a week for 21 days; format: functional

Compound: Nc1cccc2c1C(=O)N(C1CCC(=O)NC1=O)C2 (stereo not drawn)
IC50 (PBMC [1]): > 100000 nM

Compound: Nc1ccc2c(c1)C(=O)N(C1CCC(=O)NC1=O)C2 (stereo not drawn)
IC50 (PBMC [1]): > 100000 nM

Compound: Nc1ccc2c(c1)CN(C1CCC(=O)NC1=O)C2=O (stereo not drawn)
IC50 (PBMC [1]): > 100000 nM

IC50 (Raji): 20.4 nM
IC50 (THP-1): 1.5 nM
IC50 (MM1.S): 0.3 nM
IC50 (RPMI-8226 [3]): 5.5 nM
IC50 (MV4-11): 0.2 nM
Compound: Cc1ccc(NC(=O)NCc2ccc3c(c2)CN(C2CCC(=O)NC2=O)C3=O)cc1Cl (stereo not drawn)
IC50 (U-266): 2 nM
IC50 (Z-138): 0.4 nM
IC50 [2]: 0.4 nM
IC50 (Kasumi 1): 0.8 nM
IC50 (PBMC [4]): 0.3 nM
IC50 (JeKo-1): 1.2 nM

IC50 (Raji): > 20000 nM
IC50 (THP-1): > 20000 nM
IC50 (MM1.S): 1.3 nM
IC50 (RPMI-8226 [3]): 200 nM
IC50 (MV4-11): > 20000 nM
Compound: N#Cc1ccc(CSc2cccc3c2CN(C2CCC(=O)NC2=O)C3=O)cc1 (stereo not drawn)
IC50 (U-266): > 20000 nM
IC50 (Z-138): > 20000 nM
IC50 [2]: 3.7 nM
IC50 (Kasumi 1): > 20000 nM
IC50 (PBMC [4]): > 20000 nM
IC50 (JeKo-1): > 20000 nM

Compound: NC(=O)c1ccc(CSc2cccc3c2CN(C2CCC(=O)NC2=O)C3=O)cc1 (stereo not drawn)
IC50 [2]: 35.4 nM

Compound: O=C1CCC(N2Cc3c(SCc4ccc(Cl)cc4)cccc3C2=O)C(=O)N1 (stereo not drawn)
IC50 (U-266): > 20000 nM
Activity (RPMI-8226 [5]): 52.31%
Activity (RPMI-8226 [6]): 1022 mm3
clearance [7]: 196 mL/min/kg
IC50 (Raji): > 20000 nM
Activity [8]: Non-Toxic
IC50 (THP-1): > 20000 nM
Cmax [9]: 283 ng/mL
IC50 (MM1.S): 1.1 nM
IC50 (Z-138): > 20000 nM
Vd [10]: 11.1 L/kg
Tmax [11]: 49.8 min
IC50 [2]: 2.3 nM
AUC(0-inf) [12]: 428 ng·h/mL
half-life [13]: 107 min
IC50 (Kasumi 1): > 20000 nM
Activity [14]: 22.4 g
IC50 (RPMI-8226 [3]): 5.5 nM
IC50 (PBMC [4]): > 20000 nM
AUC(0-inf) [15]: 755 ng·h/mL
MRT inf [16]: 56.4 min
bioavailability [17]: 39.2%
IC50 (JeKo-1): > 20000 nM
Activity [18]: 9.8%
half-life [19]: 113 min
IC50 (MV4-11): > 20000 nM
fold change (FC) (RPMI-8226 [20]): 6.62

Compound: COC(=O)c1ccc(CSc2cccc3c2CN(C2CCC(=O)NC2=O)C3=O)cc1 (stereo not drawn)
IC50 [2]: 7.4 nM

IC50 (MM1.S): 0.9 nM
IC50 (MV4-11): > 20000 nM
Compound: O=C1CCC(N2Cc3c(SCc4cccc(F)c4)cccc3C2=O)C(=O)N1 (stereo not drawn)
IC50 [2]: 4.3 nM

Compound: CC(C)(C)OC(=O)c1ccc(CSc2cccc3c2CN(C2CCC(=O)NC2=O)C3=O)cc1 (stereo not drawn)
IC50 [2]: 1.1 nM

Compound: CC1CC(C)CN(C(=O)c2ccc(CSc3cccc4c3CN(C3CCC(=O)NC3=O)C4=O)cc2)C1 (stereo not drawn)
IC50 [2]: 6 nM

IC50 (MM1.S): 1.1 nM
IC50 (MV4-11): > 20000 nM
Compound: O=C1CCC(N2Cc3c(SCc4cccc(Cl)c4)cccc3C2=O)C(=O)N1 (stereo not drawn)
IC50 [2]: 2.4 nM

IC50 (MM1.S): 1.4 nM
IC50 (MV4-11): > 20000 nM
Compound: N#Cc1cccc(CSc2cccc3c2CN(C2CCC(=O)NC2=O)C3=O)c1 (stereo not drawn)
IC50 [2]: 8 nM

Compound: O=C1CCC(N2Cc3c(SCc4ccc(C(=O)N5CCOCC5)cc4)cccc3C2=O)C(=O)N1 (stereo not drawn)
IC50 [2]: 1.9 nM

IC50 (MM1.S): 1.1 nM
IC50 (MV4-11): > 20000 nM
Compound: O=C1CCC(N2Cc3c(SCc4ccccc4Cl)cccc3C2=O)C(=O)N1 (stereo not drawn)
IC50 [2]: 11.6 nM

clearance [7]: 210 mL/min/kg
Cmax [9]: 496 ng/mL
Vd [10]: 4.69 L/kg
Tmax [11]: 8.4 min
AUC(0-inf) [12]: 397 ng·h/mL
half-life [13]: 85.8 min
AUC(0-inf) [15]: 288 ng·h/mL
MRT inf [16]: 22.2 min
bioavailability [17]: 17.6%
half-life [19]: 52.8 min
Compound: O=C1CCC(N2Cc3c(SCc4ccc(CN5CCOCC5)cc4)cccc3C2=O)C(=O)N1 (stereo not drawn)
IC50 [2]: 3.3 nM

IC50 (MM1.S): 1.1 nM
IC50 (MV4-11): > 20000 nM
Compound: CCCCCSc1cccc2c1CN(C1CCC(=O)NC1=O)C2=O (stereo not drawn)
IC50 [2]: 160 nM
